This note sets out measurements from patent US20080299566A1, “Methylation of Gene Promoters as a Predictor of Effectiveness of Therapy” (priority 2006, published 2008).

One assay relates to ESCC cell line KYSE 110. Kind of assay: 5AzaC treatment of ESCC cell line KYSE 110; qMSP and real-time RT-PCR for Reprimo. Format: cell-based. Conditions: 1 μl of 5 mM 5AzaC per ml of cells every 24 hours for 6 days, harvested day 0, 2, 4, 6. The method, then: (§1) DNA methylation of Reprimo was determined by qMSP using the ABI 7700 Taqman system (Eads C. A. et al., (2001)). MSP distinguishes methylated alleles of a given gene based on DNA sequence alterations after bisulfite treatment of DNA. Bisulfite treatment converts unmethylated but not methylated cytosines to uracils. Subsequent PCR using primers and probe specific to the corresponding methylated DNA sequence is then performed. (Eads C. A. et al., (2001)).
(§2) The normalized MSP value (NMV) was calculated by dividing the ratio of the qMSP value for Reprimo to β-actin for each sample by the ratio of the qMSP value for Reprimo to, β-actin for Universal Methylated DNA (See Sato F. et al., Cancer Res., 62:6820-6822 (2002) and Shibata, D. M., et al., Cancer Res., 62:5637-5640 (2002)). Qualitative MSP status was determined by analyzing the normalized MSP value. A normalized MSP value of 0.05 was assigned as the cutoff point for classifying methylation status as qualitatively positive (≧0.05) or negative (<0.05). This cutoff point had been previously determined by ROC curve analysis (See Shibata, D. M., et al., (2002)).
(§3) This treatment protocol has been published previously (Shibata, D. M., et al., Cancer Res., 62:5637-5640 (2002)). […]
In general terms: Real-time PCR tracks product formation cycle by cycle.

The next assay relates to EAC cell line OE33. Kind of assay: 5AzaC treatment of EAC cell line OE33; qMSP and real-time RT-PCR for Reprimo. The class given is cell-based. Conditions: 1 μl of 5 mM 5AzaC per ml of cells every 24 hours for 6 days, harvested day 0, 2, 4, 6. The method, then:
as §1, §2, §3

On to `Nc1ncn([C@H]2C[C@H](O)[C@@H](CO)O2)c(=O)n1` [5AzaC, 5-Aza-2′-Deoxycytidine], for which the “Reprimo mRNA expression” value in the assay on ESCC cell line KYSE 110 and with EAC cell line OE33 was “increased Reprimo mRNA expression” in each case. Also, the “Reprimo methylation (qMSP)” value with ESCC cell line KYSE 110 and with EAC cell line OE33 was “reduction in Reprimo methylation” in each case.
